Active and inactive are the calls of the source. The calls are words filed in the database; no cut-off is given here.
Tests used:
OCI-Ly3 [1] = assay: Induction of apoptosis in human OCILY3 cells measured by flow cytometry analysis; format: functional, cell-based
[2] = target: T1, Histone deacetylase (Homo sapiens) (UniProt Q13547+O15379+Q9UBN7+Q92769+Q9UQL6+Q8WUI4+Q9BY41+Q96DB2+P56524+Q9UKV0+Q969S8); assay: Inhibition of HDAC in human OCILY3 cells assessed as Down-regulation of STAT3 phosphorylation at Y705 residue at 10 uM measured by Western blot analysis; format: cell-based
[3] = target: T1, Histone deacetylase (Homo sapiens); assay: Inhibition of HDAC in human DOHH-2 cells assessed as effect on pS6 levels at 10 uM measured by Western blot analysis; format: cell-based
DOHH-2 [4] = assay: Induction of cell cycle arrest in human DOHH-2 cells assessed as accumulation at S phase measured by flow cytometry analysis; format: functional, cell-based
DOHH-2 [5] = assay: Induction of cell cycle arrest in human DOHH-2 cells assessed as accumulation at G2/M phase measured by flow cytometry analysis; format: functional, cell-based
[6] = target: T1, Histone deacetylase (Homo sapiens); assay: Inhibition of HDAC in human OCILY3 cells assessed as effect on pS6 levels at 10 uM measured by Western blot analysis; format: cell-based
DOHH-2 [7] = assay: Induction of apoptosis in human DOHH-2 cells measured by flow cytometry analysis; format: functional, cell-based
[8] = target: T1, Histone deacetylase (Homo sapiens); assay: Inhibition of HDAC in human DOHH-2 cells assessed as Down-regulation of STAT3 phosphorylation at Y705 residue at 10 uM measured by Western blot analysis; format: cell-based
[9] = target: T1, Histone deacetylase (Homo sapiens); assay: Inhibition of HDAC in human DOHH-2 cells assessed as down-regulation of STAT3 phosphorylation at Y705 residue at 0.5 to 12 hrs measured by Western blot analysis; format: cell-based; conditions: time 0.5-12 hrs
[10] = target: T1, Histone deacetylase (Homo sapiens); assay: Inhibition of HDAC in human OCILY3 cells assessed as decrease in p-S6 level at 0.5 to 12 hrs measured by Western blot analysis; format: cell-based; conditions: time 0.5-12 hrs
OCI-Ly3 [11] = assay: Induction of apoptosis in human OCILY3 cells at 0.01 to 1 uM measured by flow cytometry analysis; format: functional, cell-based; conditions: dose 0.01-1 µM, DDE = dose-dependent effect
[12] = target: T1, Histone deacetylase (Homo sapiens); assay: Inhibition of HDAC in human DOHH-2 cells assessed as effect on pS6 levels at 0.01 to 1 uM measured by Western blot analysis; format: cell-based; conditions: dose 0.01-1 µM
DOHH-2 [13] = assay: Induction of apoptosis in human DOHH-2 cells assessed as upregulation of cleaved-PARP at 0.01 to 1 uM measured by Western blot analysis; format: functional, cell-based; conditions: dose 0.01-1 µM
SUD4 [14] = assay: Antitumour activity against CM-Dil labeled human SU-DHL-4 cells xenografted in zebrafish embryo assessed as decrease in tumor growth at 3 uM measured by fluorescence based assay; format: functional, cell-based
[15] = target: T1, Histone deacetylase (Homo sapiens); assay: Inhibition of HDAC in human DOHH-2 cells assessed as decrease in p-S6 level at 0.5 to 12 hrs measured by Western blot analysis; format: cell-based; conditions: time 0.5-12 hrs
OCI-Ly7 = assay: Antiproliferative activity against human OCILY7 cells measured after 4 days by Cell Titer Glo Luminescent Cell Viability Assay; format: functional, cell-based; conditions: OCI-Ly7, 96 h
[16] = target: T1, Histone deacetylase (Homo sapiens); assay: Inhibition of HDAC in human OCILY3 cells assessed as increase in Ac-p53 levels at 0.01 to 1 uM measured by Western blot analysis; format: cell-based; conditions: dose 0.01-1 µM
[17] = target: Phosphatidylinositol 4,5-bisphosphate 3-kinase catalytic subunit alpha isoform (Homo sapiens) (UniProt P42336); assay: Inhibition of PI3Kalpha in human OCILY3 cells assessed as decrease in AKT phosphorylation at Thr308 residue at 0.01 to 1 uM measured by western blot analysis; format: cell-based; conditions: dose 0.01-1 µM
DOHH-2 [18] = assay: Induction of apoptosis in human DOHH-2 cells assessed as upregulation of cleaved-caspase3 at 0.01 to 1 uM measured by Western blot analysis; format: functional, cell-based; conditions: dose 0.01-1 µM
DOHH-2 [19] = assay: Induction of cell cycle arrest in human DOHH-2 cells assessed as accumulation at S phase at 0.01 to 1 uM measured by flow cytometry analysis; format: functional, cell-based; conditions: dose 0.01-1 µM, DDE = dose-dependent effect
[20] = target: Phosphatidylinositol 4,5-bisphosphate 3-kinase catalytic subunit alpha isoform (Homo sapiens) (UniProt P42336); assay: Inhibition of PI3Kalpha in human DOHH-2 cells assessed as decrease in AKT phosphorylation at 0.5 to 1 hrs measured by western blot analysis; format: cell-based; conditions: time 0.5-1 hrs
WSUDLCL2 = assay: Antiproliferative activity against human WSUDLCL2 cells measured after 4 days by Cell Titer Glo Luminescent Cell Viability Assay; format: functional, cell-based; conditions: WSUDLCL2, 96 h
[21] = Antiproliferative activity against human HBL1 cells measured after 4 days by Cell Titer Glo Luminescent Cell Viability Assay; format: functional, cell-based; conditions: HBL1, 96 h
SU-DHL-6 = assay: Antiproliferative activity against human SU-DHL-6 cells measured after 4 days by Cell Titer Glo Luminescent Cell Viability Assay; format: functional, cell-based; conditions: SU-DHL-6, 96 h
[22] = target: T1, Histone deacetylase (Homo sapiens); assay: Inhibition of HDAC in human OCILY3 cells assessed as effect on pS6 levels at 0.01 to 1 uM measured by Western blot analysis; format: cell-based; conditions: dose 0.01-1 µM
[23] = target: T1, Histone deacetylase (Homo sapiens); assay: Inhibition of HDAC in human OCILY3 cells assessed as Down-regulation of STAT3 phosphorylation at Y705 residue at 0.01 to 1 uM measured by Western blot analysis; format: cell-based; conditions: dose 0.01-1 µM
OCI-Ly3 [24] = assay: Antiproliferative activity against human OCILY3 cells measured after 4 days by Cell Titer Glo Luminescent Cell Viability Assay; format: functional, cell-based; conditions: OCI-Ly3, 96 h
[25] = target: T1, Histone deacetylase (Homo sapiens); assay: Inhibition of HDAC in human OCILY3 cells assessed as increase in Ac-H3 levels at 0.01 to 1 uM measured by Western blot analysis; format: cell-based; conditions: dose 0.01-1 µM
[26] = target: T1, Histone deacetylase (Homo sapiens); assay: Inhibition of HDAC in human OCILY3 cells assessed as down-regulation of STAT3 phosphorylation at Y705 residue at 0.5 to 12 hrs measured by Western blot analysis; format: cell-based; conditions: time 0.5-12 hrs
U2932 = assay: Antiproliferative activity against human U2932 cells measured after 4 days by Cell Titer Glo Luminescent Cell Viability Assay; format: functional, cell-based; conditions: U2932, 96 h
SU-DHL-8 = assay: Antiproliferative activity against human SU-DHL-8 cells measured after 4 days by Cell Titer Glo Luminescent Cell Viability Assay; format: functional, cell-based; conditions: SU-DHL-8, 96 h
[27] = target: Phosphatidylinositol 4,5-bisphosphate 3-kinase catalytic subunit alpha isoform (Homo sapiens) (UniProt P42336); assay: Inhibition of PI3Kalpha in human OCILY3 cells assessed as decrease in AKT phosphorylation at 0.5 to 1 hrs measured by western blot analysis; format: cell-based; conditions: time 0.5-1 hrs
SU-DHL10 = assay: Antiproliferative activity against human SU-DHL-10 cells measured after 4 days by Cell Titer Glo Luminescent Cell Viability Assay; format: functional, cell-based; conditions: SU-DHL10, 96 h
DOHH-2 [28] = assay: Antiproliferative activity against human DOHH-2 cells measured after 4 days by Cell Titer Glo Luminescent Cell Viability Assay; format: functional, cell-based; conditions: DOHH-2, 96 h
[29] = target: T1, Histone deacetylase (Homo sapiens); assay: Inhibition of HDAC in human DOHH-2 cells assessed as increase in Ac-p53 levels at 0.01 to 1 uM measured by Western blot analysis; format: cell-based; conditions: dose 0.01-1 µM
OCI-Ly3 [30] = assay: Induction of apoptosis in human OCILY3 cells assessed as upregulation of cleaved-caspase3 at 0.01 to 1 uM measured by Western blot analysis; format: functional, cell-based; conditions: dose 0.01-1 µM
[31] = target: T1, Histone deacetylase (Homo sapiens); assay: Inhibition of HDAC in human DOHH-2 cells assessed as Down-regulation of STAT3 phosphorylation at Y705 residue at 0.01 to 1 uM measured by Western blot analysis; format: cell-based; conditions: dose 0.01-1 µM
[32] = target: T1, Histone deacetylase (Homo sapiens); assay: Inhibition of HDAC in human OCILY3 cells assessed as […] level at 0.5 to 12 hrs measured by Western blot analysis; format: cell-based; conditions: time 0.5-12 hrs
WSU-NHL = assay: Antiproliferative activity against human WSU-NHL cells measured after 4 days by Cell Titer Glo Luminescent Cell Viability Assay; format: functional, cell-based; conditions: 96 h
OCI-Ly3 [33] = assay: Induction of apoptosis in human OCILY3 cells assessed as upregulation of cleaved-PARP at 0.01 to 1 uM measured by Western blot analysis; format: functional, cell-based; conditions: dose 0.01-1 µM
Toledo = assay: Antiproliferative activity against human Toledo cells measured after 4 days by Cell Titer Glo Luminescent Cell Viability Assay; format: functional, cell-based; conditions: 96 h
SU-DHL-5 = assay: Antiproliferative activity against human SU-DHL-5 cells measured after 4 days by Cell Titer Glo Luminescent Cell Viability Assay; format: functional, cell-based; conditions: SU-DHL-5, 96 h
[34] = target: Phosphatidylinositol 4,5-bisphosphate 3-kinase catalytic subunit alpha isoform (Homo sapiens) (UniProt P42336); assay: Inhibition of PI3Kalpha in human DOHH-2 cells assessed as decrease in AKT phosphorylation at 0.01 to 1 uM measured by western blot analysis; format: cell-based; conditions: dose 0.01-1 µM
KARPAS-422 = assay: Antiproliferative activity against human KARPAS-422 cells measured after 4 days by Cell Titer Glo Luminescent Cell Viability Assay; format: functional, cell-based; conditions: KARPAS-422, 96 h
DOHH-2 [35] = assay: Induction of apoptosis in human DOHH-2 cells at 0.01 to 1 uM measured by flow cytometry analysis; format: functional, cell-based; conditions: dose 0.01-1 µM, DDE = dose-dependent effect
[36] = target: T1, Histone deacetylase (Homo sapiens); assay: Inhibition of HDAC in human DOHH-2 cells assessed as increase in Ac-H3 levels at 0.01 to 1 uM measured by Western blot analysis; format: cell-based; conditions: dose 0.01-1 µM
OCI-LY19 = assay: Antiproliferative activity against human OCILY19 cells measured after 4 days by Cell Titer Glo Luminescent Cell Viability Assay; format: functional, cell-based; conditions: OCI-LY19, 96 h
[37] = target: T1, Histone deacetylase (Homo sapiens); assay: Inhibition of HDAC in human DOHH-2 cells assessed as […] level at 0.5 to 12 hrs measured by Western blot analysis; format: cell-based; conditions: time 0.5-12 hrs
[38] = target: Phosphatidylinositol 4,5-bisphosphate 3-kinase catalytic subunit alpha isoform (Homo sapiens) (UniProt P42336); assay: Inhibition of PI3Kalpha in human OCILY3 cells assessed as decrease in AKT phosphorylation at Ser473 residue at 0.01 to 1 uM measured by western blot analysis; format: cell-based; conditions: dose 0.01-1 µM
Pfeiffer = assay: Antiproliferative activity against human Pfeiffer cells measured after 4 days by Cell Titer Glo Luminescent Cell Viability Assay; format: functional, cell-based; conditions: 96 h
SUD4 [39] = assay: Antiproliferative activity against human SU-DHL-4 cells measured after 4 days by Cell Titer Glo Luminescent Cell Viability Assay; format: functional, cell-based; conditions: SU-DHL-4, 96 h
DOHH-2 [40] = assay: Induction of cell cycle arrest in human DOHH-2 cells assessed as accumulation at G2/M phase in presence of pictilisib measured by flow cytometry analysis; format: functional, cell-based

Chain of Phosphatidylinositol 4,5-bisphosphate 3-kinase catalytic subunit alpha isoform (Homo sapiens) (P42336 whole entry, canonical isoform): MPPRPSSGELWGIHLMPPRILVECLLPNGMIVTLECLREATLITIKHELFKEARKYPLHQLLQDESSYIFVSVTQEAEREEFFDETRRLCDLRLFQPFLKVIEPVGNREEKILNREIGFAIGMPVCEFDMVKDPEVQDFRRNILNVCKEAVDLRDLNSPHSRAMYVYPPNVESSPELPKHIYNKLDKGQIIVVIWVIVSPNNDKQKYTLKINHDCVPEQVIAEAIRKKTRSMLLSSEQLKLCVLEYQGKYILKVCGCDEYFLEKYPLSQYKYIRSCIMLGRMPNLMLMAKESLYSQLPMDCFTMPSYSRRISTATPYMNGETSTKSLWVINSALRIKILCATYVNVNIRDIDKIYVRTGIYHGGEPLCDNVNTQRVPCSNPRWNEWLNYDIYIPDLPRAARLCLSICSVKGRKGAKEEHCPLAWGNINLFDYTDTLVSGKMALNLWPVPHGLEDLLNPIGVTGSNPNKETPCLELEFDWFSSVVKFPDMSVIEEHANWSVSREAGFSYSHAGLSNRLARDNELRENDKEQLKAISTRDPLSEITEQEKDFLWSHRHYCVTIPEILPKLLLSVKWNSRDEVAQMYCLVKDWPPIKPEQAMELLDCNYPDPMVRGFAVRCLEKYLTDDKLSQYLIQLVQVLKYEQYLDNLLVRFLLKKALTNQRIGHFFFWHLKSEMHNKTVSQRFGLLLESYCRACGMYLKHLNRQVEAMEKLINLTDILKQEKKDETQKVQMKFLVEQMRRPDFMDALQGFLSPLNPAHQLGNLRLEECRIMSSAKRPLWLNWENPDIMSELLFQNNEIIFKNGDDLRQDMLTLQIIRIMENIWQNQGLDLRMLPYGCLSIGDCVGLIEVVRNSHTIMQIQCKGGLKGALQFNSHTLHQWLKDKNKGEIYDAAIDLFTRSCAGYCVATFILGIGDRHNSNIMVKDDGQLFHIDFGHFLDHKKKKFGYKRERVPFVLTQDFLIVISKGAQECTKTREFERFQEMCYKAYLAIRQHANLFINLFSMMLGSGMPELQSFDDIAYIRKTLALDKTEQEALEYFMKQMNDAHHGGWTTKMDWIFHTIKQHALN

## CS(=O)(=O)N1CCN(Cc2cc3nc(-c4cccc5[nH]ncc45)nc(N4CCOCC4)c3s2)CC1
OCI-Ly3 [1]
  Activity: Active
[2]
  inhibition: Active
[3]
  inhibition: Active
DOHH-2 [4]
  Activity: Active
DOHH-2 [5]
  Activity: Active
[6]
  inhibition: Active
DOHH-2 [7]
  Activity: Active
[8]
  inhibition: Active

## COc1ccc(-c2cc(OCCN(C)c3ncc(C(=O)NO)cn3)c3ncnc(C)c3c2)cn1
[9]
  inhibition: Active
[10]
  inhibition: Active
OCI-Ly3 [11]
  Activity: Dde
[12]
  inhibition: Active
DOHH-2 [13]
  Activity: Active
SUD4 [14]
  Activity: Active
[15]
  inhibition: Active
OCI-Ly7
  IC50: 5.6 nM
[16]
  inhibition: Active
[17]
  inhibition: Active
DOHH-2 [18]
  Activity: Active
DOHH-2 [19]
  Activity: Dde
[20]
  inhibition: Active
WSUDLCL2
  IC50: 16 nM
[21]
  IC50: 7.9 nM
SU-DHL-6
  IC50: 6.5 nM
[22]
  inhibition: Active
[23]
  inhibition: Active
OCI-Ly3 [24]
  IC50: 3.6 nM
[25]
  inhibition: Active
[26]
  inhibition: Active
U2932
  IC50: 17.7 nM
SU-DHL-8
  IC50: 6.4 nM
[27]
  inhibition: Active
SU-DHL10
  IC50: 9.7 nM
DOHH-2 [28]
  IC50: 7.7 nM
[29]
  inhibition: Active
OCI-Ly3 [30]
  Activity: Active
[31]
  inhibition: Active
[32]
  inhibition: Active
WSU-NHL
  IC50: 5.2 nM
OCI-Ly3 [33]
  Activity: Active
Toledo
  IC50: 5.6 nM
SU-DHL-5
  IC50: 3.6 nM
[34]
  inhibition: Active
KARPAS-422
  IC50: 21 nM
DOHH-2 [35]
  Activity: Dde
[36]
  inhibition: Active
OCI-LY19
  IC50: 19.2 nM
[37]
  inhibition: Active
[38]
  inhibition: Active
Pfeiffer
  IC50: 5.3 nM
SUD4 [39]
  IC50: 7.6 nM

## O=C(CCCCCCC(=O)Nc1ccccc1)NO
OCI-Ly3 [1]
  Activity: Active
DOHH-2 [4]
  Activity: Active
DOHH-2 [5]
  Activity: Active
DOHH-2 [7]
  Activity: Active
DOHH-2 [40]
  Activity: Active

Reference: ChEMBL document CHEMBL5113427, “Bioevaluation of a dual PI3K/HDAC inhibitor for the treatment of diffuse large B-cell lymphoma” (Bioorg Med Chem Lett, 2022)
